In patent publication US6608086B2, “Dihydropyridines and new uses thereof” (Synaptic Pharmaceutical Corporation, priority 1993, dated 2003):
Structures can show the parent of a compound that is named as a salt. Where two headings read alike, the source gives them in different places.

What was measured:
α2A receptor = target: T1, α2A receptor (Homo sapiens, UniProt P08913); assay: Competition binding, [3H]rauwolscine, human α2A receptor
T1 construct: host or cells: LM(tk-) cells, line L-α2A
T1 sequence (P08913 1-465): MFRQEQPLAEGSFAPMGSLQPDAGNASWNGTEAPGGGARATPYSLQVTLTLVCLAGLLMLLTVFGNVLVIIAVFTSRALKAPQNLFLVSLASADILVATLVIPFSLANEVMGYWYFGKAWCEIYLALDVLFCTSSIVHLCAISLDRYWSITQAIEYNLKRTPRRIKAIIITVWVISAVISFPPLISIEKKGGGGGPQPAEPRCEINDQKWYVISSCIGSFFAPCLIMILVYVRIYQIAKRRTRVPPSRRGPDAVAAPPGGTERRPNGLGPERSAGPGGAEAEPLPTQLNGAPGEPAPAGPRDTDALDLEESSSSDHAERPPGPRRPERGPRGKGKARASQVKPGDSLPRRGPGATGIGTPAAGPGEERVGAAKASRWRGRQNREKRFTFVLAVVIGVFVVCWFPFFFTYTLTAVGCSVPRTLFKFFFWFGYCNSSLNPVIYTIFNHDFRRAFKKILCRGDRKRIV
Method in brief: (§1)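 Filter-bound [3H]rauwolscine (0.5 nM) was measured after equilibrium competition with test antagonists on lysates of LM(tk−) cells stably transfected with each human α2 subtype. Buffer: 25 mM glycylglycine, pH 7.6 at room temperature; 10 μM phentolamine gave nonspecific binding.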

L-type calcium channel = target: T2, L-type calcium channel (Rattus norvegicus, UniProt P22002); assay: Competition binding of [3H]nitrendipine to membrane fragments of rat cardiac muscle
T2 construct: membrane fragments of rat cardiac muscle; from tissue; host or cells: rat cardiac muscle membranes
T2 sequence (P22002 whole entry, other chains not shown, the tested form may be a part): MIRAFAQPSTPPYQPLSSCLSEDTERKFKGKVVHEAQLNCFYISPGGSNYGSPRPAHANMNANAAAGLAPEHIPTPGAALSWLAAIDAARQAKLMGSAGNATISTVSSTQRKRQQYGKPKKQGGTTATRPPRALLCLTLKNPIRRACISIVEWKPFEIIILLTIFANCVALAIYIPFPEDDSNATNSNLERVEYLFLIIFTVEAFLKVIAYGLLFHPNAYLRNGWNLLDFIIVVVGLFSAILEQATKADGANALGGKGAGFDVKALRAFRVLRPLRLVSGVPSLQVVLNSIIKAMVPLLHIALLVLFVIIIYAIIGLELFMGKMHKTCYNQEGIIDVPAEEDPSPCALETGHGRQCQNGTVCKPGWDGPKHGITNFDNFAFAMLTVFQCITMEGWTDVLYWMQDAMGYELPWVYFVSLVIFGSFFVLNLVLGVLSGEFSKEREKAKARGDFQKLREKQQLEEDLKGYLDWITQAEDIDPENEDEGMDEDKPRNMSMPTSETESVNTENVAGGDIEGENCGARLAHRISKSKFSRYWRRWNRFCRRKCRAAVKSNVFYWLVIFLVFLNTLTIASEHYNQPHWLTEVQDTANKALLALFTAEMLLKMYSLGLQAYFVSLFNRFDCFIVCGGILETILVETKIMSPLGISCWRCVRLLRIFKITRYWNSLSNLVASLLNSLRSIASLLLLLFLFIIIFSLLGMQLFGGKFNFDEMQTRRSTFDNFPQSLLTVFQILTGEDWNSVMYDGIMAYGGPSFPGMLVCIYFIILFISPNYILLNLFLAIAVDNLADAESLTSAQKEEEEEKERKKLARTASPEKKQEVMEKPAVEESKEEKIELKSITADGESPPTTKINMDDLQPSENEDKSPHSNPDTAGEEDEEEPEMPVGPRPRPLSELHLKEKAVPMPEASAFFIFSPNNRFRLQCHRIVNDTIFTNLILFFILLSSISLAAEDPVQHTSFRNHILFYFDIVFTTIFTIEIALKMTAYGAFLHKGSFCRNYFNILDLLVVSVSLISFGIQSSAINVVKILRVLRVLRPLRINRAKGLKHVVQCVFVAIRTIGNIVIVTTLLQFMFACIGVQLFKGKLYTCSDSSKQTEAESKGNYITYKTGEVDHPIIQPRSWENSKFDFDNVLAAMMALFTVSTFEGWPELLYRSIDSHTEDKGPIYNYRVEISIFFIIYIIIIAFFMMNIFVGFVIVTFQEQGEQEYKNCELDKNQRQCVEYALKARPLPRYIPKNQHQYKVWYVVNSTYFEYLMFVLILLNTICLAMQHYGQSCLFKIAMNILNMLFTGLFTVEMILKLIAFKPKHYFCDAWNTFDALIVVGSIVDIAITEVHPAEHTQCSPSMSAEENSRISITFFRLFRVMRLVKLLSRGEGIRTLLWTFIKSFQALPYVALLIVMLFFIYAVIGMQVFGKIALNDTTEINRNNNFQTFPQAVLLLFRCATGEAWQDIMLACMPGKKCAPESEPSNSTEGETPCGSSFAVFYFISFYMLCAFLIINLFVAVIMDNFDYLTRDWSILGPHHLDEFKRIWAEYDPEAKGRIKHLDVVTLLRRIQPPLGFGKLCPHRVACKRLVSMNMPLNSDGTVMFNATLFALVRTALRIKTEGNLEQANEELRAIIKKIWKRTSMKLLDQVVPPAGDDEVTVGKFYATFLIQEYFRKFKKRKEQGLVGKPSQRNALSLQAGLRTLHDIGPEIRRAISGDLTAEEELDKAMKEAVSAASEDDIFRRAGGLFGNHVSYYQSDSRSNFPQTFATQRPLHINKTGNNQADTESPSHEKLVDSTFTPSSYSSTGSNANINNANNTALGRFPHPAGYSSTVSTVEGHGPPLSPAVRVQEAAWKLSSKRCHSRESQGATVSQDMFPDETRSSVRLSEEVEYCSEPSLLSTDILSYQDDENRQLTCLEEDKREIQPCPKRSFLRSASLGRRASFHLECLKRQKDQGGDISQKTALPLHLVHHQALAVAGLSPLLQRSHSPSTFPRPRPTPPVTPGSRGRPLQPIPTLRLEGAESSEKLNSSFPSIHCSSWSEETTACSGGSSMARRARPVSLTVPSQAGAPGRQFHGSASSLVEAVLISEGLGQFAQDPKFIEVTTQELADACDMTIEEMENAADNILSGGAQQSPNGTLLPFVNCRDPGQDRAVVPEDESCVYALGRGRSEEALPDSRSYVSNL
T2 sequence (P54290 25-944 partner limits assumed, other chains not shown): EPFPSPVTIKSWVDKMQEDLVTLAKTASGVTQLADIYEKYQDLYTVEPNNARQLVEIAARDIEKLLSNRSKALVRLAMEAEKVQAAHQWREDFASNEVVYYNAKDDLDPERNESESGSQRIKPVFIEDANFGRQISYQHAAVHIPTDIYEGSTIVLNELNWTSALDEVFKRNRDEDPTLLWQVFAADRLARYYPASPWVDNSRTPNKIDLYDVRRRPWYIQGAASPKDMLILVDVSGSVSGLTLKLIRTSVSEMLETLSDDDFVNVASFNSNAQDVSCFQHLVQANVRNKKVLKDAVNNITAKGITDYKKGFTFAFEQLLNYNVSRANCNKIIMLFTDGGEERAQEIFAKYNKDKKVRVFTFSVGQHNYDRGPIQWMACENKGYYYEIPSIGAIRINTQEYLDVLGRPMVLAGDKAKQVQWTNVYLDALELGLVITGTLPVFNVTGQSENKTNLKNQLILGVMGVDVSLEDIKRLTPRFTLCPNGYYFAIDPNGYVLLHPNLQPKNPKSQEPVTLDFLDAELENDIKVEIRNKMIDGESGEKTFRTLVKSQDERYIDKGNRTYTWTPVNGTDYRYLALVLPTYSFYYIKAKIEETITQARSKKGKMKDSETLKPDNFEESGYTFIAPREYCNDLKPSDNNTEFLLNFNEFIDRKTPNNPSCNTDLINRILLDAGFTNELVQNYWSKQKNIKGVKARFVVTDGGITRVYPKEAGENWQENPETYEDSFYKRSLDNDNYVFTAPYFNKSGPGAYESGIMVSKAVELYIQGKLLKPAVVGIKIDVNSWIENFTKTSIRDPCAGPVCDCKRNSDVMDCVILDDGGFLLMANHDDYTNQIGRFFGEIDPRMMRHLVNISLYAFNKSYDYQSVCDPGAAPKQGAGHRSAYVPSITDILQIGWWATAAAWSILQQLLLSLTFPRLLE
T2 sequence (P54290 945-1091 partner limits assumed, other chains not shown): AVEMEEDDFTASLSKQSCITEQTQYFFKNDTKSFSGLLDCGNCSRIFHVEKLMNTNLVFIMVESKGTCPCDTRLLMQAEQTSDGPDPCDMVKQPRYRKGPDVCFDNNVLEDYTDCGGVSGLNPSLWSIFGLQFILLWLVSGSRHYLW

α2C receptor = target: T3, α2C receptor (Homo sapiens, UniProt P18825); assay: Competition binding, [3H]rauwolscine, human α2C receptor
T3 construct: host or cells: LM(tk-) cells, line L-α2C
T3 sequence (P18825 1-462): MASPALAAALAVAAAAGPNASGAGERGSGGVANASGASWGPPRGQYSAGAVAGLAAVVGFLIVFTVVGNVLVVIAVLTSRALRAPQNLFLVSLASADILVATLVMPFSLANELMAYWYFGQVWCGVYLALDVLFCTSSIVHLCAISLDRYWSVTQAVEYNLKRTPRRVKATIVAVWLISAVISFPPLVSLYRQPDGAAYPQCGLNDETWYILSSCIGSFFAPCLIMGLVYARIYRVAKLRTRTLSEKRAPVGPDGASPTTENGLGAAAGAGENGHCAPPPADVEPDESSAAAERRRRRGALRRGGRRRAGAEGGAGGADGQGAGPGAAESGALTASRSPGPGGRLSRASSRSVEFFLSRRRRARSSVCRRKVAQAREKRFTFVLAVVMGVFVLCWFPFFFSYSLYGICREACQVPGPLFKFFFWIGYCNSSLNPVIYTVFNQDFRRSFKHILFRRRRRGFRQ
Method in brief: as §1

α2B receptor = target: T4, α2B receptor (Homo sapiens, UniProt P18089); assay: Competition binding, [3H]rauwolscine, human α2B receptor
T4 construct: host or cells: LM(tk-) cells, line L-NGC-α2B
T4 sequence (P18089 1-450): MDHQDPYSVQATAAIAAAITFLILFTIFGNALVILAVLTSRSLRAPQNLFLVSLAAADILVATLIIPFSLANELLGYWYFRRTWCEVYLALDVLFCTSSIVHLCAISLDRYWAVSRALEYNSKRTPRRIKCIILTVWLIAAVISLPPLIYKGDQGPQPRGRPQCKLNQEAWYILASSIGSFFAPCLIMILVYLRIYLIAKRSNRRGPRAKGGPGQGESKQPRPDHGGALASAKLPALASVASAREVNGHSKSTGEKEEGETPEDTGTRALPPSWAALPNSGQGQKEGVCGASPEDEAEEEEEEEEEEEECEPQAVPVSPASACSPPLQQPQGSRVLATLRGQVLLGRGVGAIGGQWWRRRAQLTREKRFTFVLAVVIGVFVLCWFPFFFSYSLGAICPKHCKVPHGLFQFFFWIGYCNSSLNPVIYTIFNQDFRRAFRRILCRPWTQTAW
Method in brief: as §1

[1] = [3H]rauwolscine, human α2A receptor, LM(tk−) cells, read-out: pKi alpha-2 2a (converted)
[2] = [3H]nitrendipine, rat cardiac muscle membrane fragments, L-type calcium channel, read-out: pKi Ca (converted)
[3] = [3H]rauwolscine, human α2C receptor, LM(tk−) cells, read-out: pKi alpha-2 2c (converted)
[4] = pKi alpha-2 2b, [3H]rauwolscine, human α2B receptor, LM(tk−) cells
[5] = pKi alpha-2 2c, [3H]rauwolscine, human α2C receptor, LM(tk−) cells
[6] = [3H]rauwolscine, human α2B receptor, LM(tk−) cells, read-out: pKi alpha-2 2b (converted)

Structure (SMILES)	Ki (α2A receptor; [1]) [µM]	Ki (L-type calcium channel; [2]) [µM]	Ki (α2C receptor; [3]) [µM]	Ki (α2B receptor; [4]) [µM]	also measured
CCC1=C(C(N)=O)C(c2ccc([N+](=O)[O-])cc2)C(C(=O)NCCCN2CCC(O)(c3ccccc3)CC2)=C(CC)N1 (stereo not drawn) [Example 100, 5-Carboxamido-2,6-diethyl-1,4-dihydro-3-{N-(3-(4-hydroxy-4-phenylpiperidin-1-yl)propyl]}carboxamido-4-(4-nitrophenyl)pyridine hydrochloride hydrate]	0.794	1000	1.78	2.88	–
CCC1=C(C(N)=O)C(c2ccc([N+](=O)[O-])cc2)C(C(=O)NCCCN2CCC(c3ccc(OC)cc3)(c3ccc(OC)cc3)CC2)=C(CC)N1 (stereo not drawn) [Example 103, 5-Carboxamido-2,6-diethyl-1,4-dihydro-3-{N-[3-(4,4-bis-(4-methoxyphenyl)piperidin-1-yl)propyl]}carboxamido}-4-(4-nitrophenyl)pyridine hydrochloride]	–	–	–	–	Ki (α2A receptor): 0.49 µM; Ki (L-type calcium channel; pKi Ca): 0.178 µM; Ki (α2C receptor; pKi alpha-2 2c): 0.269 µM; Ki (α2B receptor; pKi alpha-2 2b): 0.741 µM
CCC1=C(C(N)=O)C(c2ccc([N+](=O)[O-])cc2)C(C(=O)NCCCN2CCC3(CC2)C(=O)NCN3c2ccccc2)=C(CC)N1 (stereo not drawn) [Example 105, 5-Carboxamido-2,6-diethyl-1,4-dihydro-4-(4-nitrophenyl)-3-{N-[3-(1-phenyl-4-oxo-1,3,8-triazaspiro[4.3]decan-8-yl)propyl]}carboxamidopyridine hydrochloride hydrate]	–	–	–	–	Ki (α2A receptor): 1.26 µM; Ki (L-type calcium channel; pKi Ca): 6.61 µM; Ki (α2C receptor; pKi alpha-2 2c): 1.38 µM; Ki (α2B receptor; pKi alpha-2 2b): 2.19 µM
CCC1=C(C(N)=O)C(c2ccc([N+](=O)[O-])cc2)C(C(=O)NCCCN2CCC(C)(c3ccccc3)CC2)=C(CC)N1 (stereo not drawn) [Example 106, 5-Carboxamido-2,6-diethyl-1,4-dihydro-3-{N-[3-(4-Methyl-4-phenylpiperidin-1-yl)propyl]}carboxamido-4-(4-nitrophenyl)pyridine hydrochloride hydrate]	0.324	1000	0.295	0.372	–
CCC1=C(C(=O)NCCCN2CCC(c3ccccc3)(c3ccccc3)CC2)C(c2cccc(OC)c2)C(C(=O)NCCCN2CCC(c3ccccc3)(c3ccccc3)CC2)=C(CC)N1 [Example 112, 2,6-Diethyl-1,4-dihydro-4-(3-methoxyphenyl)-3,5-bis(N-(3-(4,4-diphenylpiperidin-1-yl)propyl)carboxamido)-pyridine]	0.257	0.0575	–	0.447	Ki (α2C receptor; [5]): 0.269 µM
CCC1=C(C(=O)NCCCN2CCC(c3ccccc3)(c3ccccc3)CC2)C(c2cccc(OC)c2)C(C(N)=O)=C(C)N1 (stereo not drawn) [Example 113, 5-Carboxamide-2-ethyl-1,4-dihydro-4-(3-methoxyphenyl)-6-methyl-3-(N-(3-(4,4-diphenylpiperidin-1-yl)propyl)carboxamido)-pyridine]	0.759	1000	–	0.166	Ki (α2C receptor; [5]): 0.316 µM
CCC1=C(C(=O)NCCCN2CCC(c3ccccc3)(c3ccccc3)CC2)C(c2ccc(N)cc2)C(C(=O)OC)=C(C)N1 (stereo not drawn) [Example 114, 4-(4-Aminophenyl)-2-ethyl-1,4-dihydro-5-methoxycarbonyl-6-methyl-3-(N-(3-(4,4-diphenylpiperidin-1-yl)propyl)carboxamido)-pyridine]	–	–	–	–	Ki (α2A receptor): 2.09 µM; Ki (L-type calcium channel; pKi Ca): 2.88 µM; Ki (α2C receptor; pKi alpha-2 2c): 0.724 µM; Ki (α2B receptor; pKi alpha-2 2b): 0.468 µM
CC1=C(C(N)=O)C(c2ccc(S(C)(=O)=O)cc2)C(C(=O)NCCCN2CCC(c3ccccc3)(c3ccccc3)CC2)=C(C)N1 (stereo not drawn) [Example 115, 5-Carboxamido-1,4-4-dihydro-4-(4-methanesufonylphenyl)-2,6-dimethyl-3-(N-(3-(4,4-diphenylpiperidin-1-yl)propyl)carboxamido)-pyridine]	3.98	1000	2.29	0.776	–
COc1cccc(C2C(C(N)=O)=C(C)NC(C)=C2C(=O)NCCCN2CCC(c3ccccc3)(c3ccccc3)CC2)c1 (stereo not drawn) [Example 117, 5-Carboxamido-1,4-dihydro-4-(3-Methoxyphenyl)-2,6-dimethyl-3-(N-(3-(4,4-diphenylpiperidin-1-yl)propyl)carboxamido)-pyridine]	0.955	1000	0.759	0.437	–
CCC1=C(C(N)=O)C(c2ccc(S(C)(=O)=O)cc2)C(C(=O)NCCCN2CCC(c3ccccc3)(c3ccccc3)CC2)=C(C)N1 (stereo not drawn) [Example 118, 3-Carboxamido-2-ethyl-1,4-dihydro-4-(4-methanesulfonylphenyl)-6-methyl-3-(N-(3-(4,4-diphenylpiperidin-1-yl)propyl)carboxyamido)-pyridine]	3.89	1000	–	1.45	Ki (α2C receptor; [5]): 2.24 µM
CCC1=C(C(N)=O)C(c2ccc([N+](=O)[O-])cc2)C(C(=O)NCCCN2CCN(c3ccccc3OC)CC2)=C(CC)N1 (stereo not drawn) [Example 125, 5-Carboxamido-2,6-diethyl-1,4-dihydro-3-(N-{3-[4-(2-methoxyphenyl)piperazin-1-yl]propyl})carboxamido-4-(4-nitrophenyl)pyridine]	0.0269	38	0.0229	–	Ki (α2B receptor; [6]): 0.186 µM
CC(C)C1=C(C(N)=O)C(c2ccc([N+](=O)[O-])cc2)C(C(=O)NCCCN2CCC(c3ccccc3)(c3ccccc3)CC2)=C(C(C)C)N1 (stereo not drawn) [Example 127]	–	1000	–	–	pKi alpha-2 2a (α2A receptor; [3H]rauwolscine, human α2A receptor, LM(tk−) cells): 6.17; pKi alpha-2 2c (α2C receptor; [3H]rauwolscine, human α2C receptor, LM(tk−) cells): 6.37; pKi alpha-2 2b (α2B receptor; [3H]rauwolscine, human α2B receptor, LM(tk−) cells): 6.42
CC1=C(C(=O)NCCCN2CCC(c3ccccc3)(c3ccccc3)CC2)C(c2ccc([N+](=O)[O-])cc2)C(C(=O)NC(C)C)=C(C)N1 (stereo not drawn) [Example 156, 1,4-Dihydro-3-(N-isopropyl) carboxamido-2,6-dimethyl-4-(4-nitrophenyl)-5-{N-[3-(^414-diphenylpiperidin-1-yl)propyl]}carboxamidopyridine]	0.316	75.9	0.219	0.562	–
CC1=C(C(=O)NCCCN2CCC(c3ccccc3)(c3ccccc3)CC2)C(c2ccc([N+](=O)[O-])cc2)C(C(=O)OCCC#N)=C(C)N1 (stereo not drawn) [Example 160]	0.457	15.5	0.155	–	Ki (α2B receptor; [6]): 0.148 µM
CNC(=O)C1=C(C)NC(C)=C(C(=O)NCCCN2CCC(O)(c3ccccc3)CC2)C1c1ccc([N+](=O)[O-])cc1 (stereo not drawn) [Example 162, 1,4-Dihydro-3-{N-[3-(4-hydroxy-4-phenylpiperidin-1-yl)propyl]}carboxamido-2,6-dimethyl-5-(N-methyl)carboxamido-4-(4-nitrophenyl)pyridine]	0.631	50.1	0.55	0.347	–
